Tests used:
[1] = target: T1, nitrendipine binding (ventricle membranes) (Rattus norvegicus, UniProt P22002); assay: nitrendipine binding assay (calcium ion antagonism), [3H]-nitrendipine, rat heart ventricle membranes; parameters: species or system Male Wistar rats; settings: 1 h, pH 7.4, 25° C., one hour; for Increase in [3H]-nitrendipine binding (%) at 20 µM: concentration 2.0 (moles) × 10^-5
T1 construct: These resuspension and recentrifugation steps are repeated twice more to wash the ventricle membranes; from tissue; host or cells: heart ventricle membranes of male Wistar rats
Protocol: The compounds of the present invention are also useful as calcium ion antagonists which are useful to control cardiovascular activities, including potential antihypertensive activity. Calcium ion antagonism is measured in the nitrendipine binding assay.
The nitrendipine binding assay is carried out in the following manner. The reagents employed are (1) 0.5 M tris Buffer, pH 7.4, prepared by combining 66.1 g of Tris HCl, 9.7 g of Tris base in 1 liter of distilled water and thereafter making a 1:10 dilution in distilled water; (2) [5-methyl-^3H]-Nitrendipine (70-81 Ci/mmol, obtained from New England Nuclear; and (3) Nifedipine. Tissue is prepared as follows. Male Wistar rats are killed by decapitation, hearts are removed and the ventricles are dissected away from the aorta and aortic tissue. The ventricles are rinsed and homogenized in 19 volumes of ice-cold 0.05 M Tris buffer, pH 7.4 using a Tekmar homogenizer. The homogenate is filtered through four layers of cheese cloth and centrifuged at 1,000 g for 10 minutes. The supernatant is decanted and recentrifuged at 48,000 g for 20 minutes. The resulting pellet is resuspended in the original volume of Tris buffer and recentrifuged at 48,000 g for 20 minutes. These resuspension and recentrifugation steps are repeated twice more to wash the ventricle membranes. The final pellet is resuspended in the original volume of 0.05 M Tris buffer. The assay itself employs 500 ul of ventricle membrane suspension; 50 ul of 0.5 M Tris buffer, pH 7.4; […] [^3 H]-nitrendipine; 20 μl of candidate drug; 380 μl of water in a test tube and is carried out in a darkened room. The test tubes are incubated for one hour at 25° C. […] The filters are washed three times with 5 ml of ice-cold 0.05 M Tris buffer, pH 7.4 and counted in 10 ml of Liquiscint scintillation cocktail. Specific binding is determined by the difference of total binding and binding in the presence of 0.1 μM nifedipine and is roughly 70-75% of the total binding. […] IC50 values for the competing drug are calculated by log-probit analysis of the data.

[2] = tested on: 2-phenyl-1,4-benzoquinone-induced writhing in mice; assay: 2-phenyl-1,4-benzoquinone-induced writhing test in mice (analgesia); format: in vivo; settings: subcutaneous
Excerpt: Compounds of the present invention are useful as analgesic agents due to their ability to alleviate pain in mammals. […] Exptl. Biol. Med. 95,729 (1957)].

T1 sequence (P22002 whole entry, other chains not shown): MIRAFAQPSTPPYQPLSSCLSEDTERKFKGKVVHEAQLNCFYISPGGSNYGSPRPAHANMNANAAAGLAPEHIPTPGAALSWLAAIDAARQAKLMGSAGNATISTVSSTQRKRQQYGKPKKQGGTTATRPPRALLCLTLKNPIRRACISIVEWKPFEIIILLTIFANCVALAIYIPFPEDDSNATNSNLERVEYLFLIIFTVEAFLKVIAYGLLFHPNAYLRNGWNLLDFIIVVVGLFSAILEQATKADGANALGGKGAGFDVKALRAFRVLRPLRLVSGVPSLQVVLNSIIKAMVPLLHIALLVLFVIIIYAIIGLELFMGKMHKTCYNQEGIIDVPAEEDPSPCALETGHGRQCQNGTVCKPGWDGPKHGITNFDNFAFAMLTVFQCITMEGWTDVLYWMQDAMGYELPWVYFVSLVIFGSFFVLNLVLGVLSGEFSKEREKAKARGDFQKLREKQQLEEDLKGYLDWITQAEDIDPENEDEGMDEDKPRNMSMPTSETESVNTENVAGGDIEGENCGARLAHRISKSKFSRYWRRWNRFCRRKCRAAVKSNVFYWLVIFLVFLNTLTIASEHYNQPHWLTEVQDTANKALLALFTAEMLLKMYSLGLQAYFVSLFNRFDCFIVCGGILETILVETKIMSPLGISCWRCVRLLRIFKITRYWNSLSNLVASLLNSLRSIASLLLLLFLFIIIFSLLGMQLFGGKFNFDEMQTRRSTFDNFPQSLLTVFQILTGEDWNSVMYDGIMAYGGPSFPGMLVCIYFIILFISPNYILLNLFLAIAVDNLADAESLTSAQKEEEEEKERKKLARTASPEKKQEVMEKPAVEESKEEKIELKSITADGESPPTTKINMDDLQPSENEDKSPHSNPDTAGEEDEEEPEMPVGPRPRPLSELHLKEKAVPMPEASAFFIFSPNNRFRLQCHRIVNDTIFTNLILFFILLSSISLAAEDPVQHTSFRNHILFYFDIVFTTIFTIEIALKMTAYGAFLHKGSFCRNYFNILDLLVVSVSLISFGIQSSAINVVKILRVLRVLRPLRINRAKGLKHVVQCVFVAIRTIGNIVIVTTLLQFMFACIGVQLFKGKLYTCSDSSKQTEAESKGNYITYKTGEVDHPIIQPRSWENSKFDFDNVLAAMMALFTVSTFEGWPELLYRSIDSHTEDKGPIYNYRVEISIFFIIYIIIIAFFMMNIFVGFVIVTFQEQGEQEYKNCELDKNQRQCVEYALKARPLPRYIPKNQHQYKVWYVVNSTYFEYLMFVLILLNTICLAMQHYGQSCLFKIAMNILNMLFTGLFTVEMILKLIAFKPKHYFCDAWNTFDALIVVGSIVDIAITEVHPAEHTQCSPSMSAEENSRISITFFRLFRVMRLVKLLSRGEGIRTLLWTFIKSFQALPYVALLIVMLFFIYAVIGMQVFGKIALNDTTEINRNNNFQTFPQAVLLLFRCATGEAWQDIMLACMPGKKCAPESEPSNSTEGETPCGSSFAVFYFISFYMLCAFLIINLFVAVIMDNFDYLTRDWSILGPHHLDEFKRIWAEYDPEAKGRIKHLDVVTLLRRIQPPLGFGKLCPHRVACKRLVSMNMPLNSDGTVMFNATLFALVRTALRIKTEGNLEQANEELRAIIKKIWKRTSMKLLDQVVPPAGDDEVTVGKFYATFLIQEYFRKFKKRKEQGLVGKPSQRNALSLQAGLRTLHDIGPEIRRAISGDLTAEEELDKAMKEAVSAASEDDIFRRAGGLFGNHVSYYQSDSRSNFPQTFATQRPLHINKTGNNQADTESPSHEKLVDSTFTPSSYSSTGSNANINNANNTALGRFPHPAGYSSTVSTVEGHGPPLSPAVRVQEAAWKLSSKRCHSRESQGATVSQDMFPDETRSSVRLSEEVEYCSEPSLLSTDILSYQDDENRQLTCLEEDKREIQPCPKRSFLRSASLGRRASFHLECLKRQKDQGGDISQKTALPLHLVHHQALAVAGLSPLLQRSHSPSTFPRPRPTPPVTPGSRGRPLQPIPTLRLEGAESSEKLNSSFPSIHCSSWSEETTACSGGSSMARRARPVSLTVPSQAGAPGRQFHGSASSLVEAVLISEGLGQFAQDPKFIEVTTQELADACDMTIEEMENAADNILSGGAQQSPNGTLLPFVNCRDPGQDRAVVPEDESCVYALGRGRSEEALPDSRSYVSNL
T1 sequence (P54290 25-945 partner limits assumed, other chains not shown): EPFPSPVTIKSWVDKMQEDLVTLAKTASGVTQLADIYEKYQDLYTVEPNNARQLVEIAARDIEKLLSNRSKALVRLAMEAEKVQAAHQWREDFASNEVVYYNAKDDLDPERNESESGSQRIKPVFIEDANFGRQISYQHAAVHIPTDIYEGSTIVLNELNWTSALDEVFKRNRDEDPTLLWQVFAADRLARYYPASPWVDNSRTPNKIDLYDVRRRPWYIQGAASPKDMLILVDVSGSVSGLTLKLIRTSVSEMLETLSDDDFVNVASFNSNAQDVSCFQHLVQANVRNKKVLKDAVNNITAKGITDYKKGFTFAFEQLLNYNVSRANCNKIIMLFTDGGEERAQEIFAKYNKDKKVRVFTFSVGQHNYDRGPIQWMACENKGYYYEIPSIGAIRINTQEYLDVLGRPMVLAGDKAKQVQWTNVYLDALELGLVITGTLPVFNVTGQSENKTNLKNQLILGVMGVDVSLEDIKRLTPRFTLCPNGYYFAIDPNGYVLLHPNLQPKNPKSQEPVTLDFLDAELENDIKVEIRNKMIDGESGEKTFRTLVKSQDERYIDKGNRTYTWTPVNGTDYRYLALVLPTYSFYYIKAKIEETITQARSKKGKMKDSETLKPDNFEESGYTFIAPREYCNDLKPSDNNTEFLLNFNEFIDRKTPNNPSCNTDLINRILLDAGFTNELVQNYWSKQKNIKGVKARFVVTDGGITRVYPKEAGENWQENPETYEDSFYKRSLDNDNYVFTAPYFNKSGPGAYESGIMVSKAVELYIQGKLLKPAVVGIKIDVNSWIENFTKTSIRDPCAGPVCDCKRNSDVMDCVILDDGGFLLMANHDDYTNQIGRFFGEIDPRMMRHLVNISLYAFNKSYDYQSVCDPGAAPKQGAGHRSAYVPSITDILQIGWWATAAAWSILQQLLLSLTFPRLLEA
T1 sequence (P54290 946-1091 partner limits assumed, other chains not shown): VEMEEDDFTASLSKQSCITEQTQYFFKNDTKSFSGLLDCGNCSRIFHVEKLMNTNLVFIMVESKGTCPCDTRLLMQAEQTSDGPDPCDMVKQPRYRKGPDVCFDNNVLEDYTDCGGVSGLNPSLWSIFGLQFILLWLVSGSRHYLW

SMILES | Increase in [3H]-nitrendipine binding (%) at 10 µM ([1]; concentration 1.0 (moles) × 10^-5, standard) [%] | Inhibition in Writhing (%) ([2]; 20 mg/kg of body weight) | Increase in [3H]-nitrendipine binding (%) at 20 µM [1] [%] | Inhibition in Writhing (%) ([2]; 15.1 mg/kg of body weight)
COc1ccc([C@@H]2Sc3ccccc3N(CCN(C)C)C(=O)[C@@H]2OC(C)=O)cc1 [diltiazem, reference compound] | 85 | – | – | –
CON1C(=O)N(CCN(C)C)c2ccccc2CC1c1ccccc1 (racemic) [(±) -1-[2-(N,N-dimethylamino)ethyl]-3-methoxy-4-phenyl-1,3,4,5-tetrahydro-2H-1,3-benzodiazepine-2-one] | – | 37 | 27.6 | –
CN1CC[C@@]23CCCC[C@@H]2[C@@H]1Cc1ccc(O)cc13 [dextrorphan, reference compound] | – | – | – | 50
CON1C(=O)N(CCCN(C)C)c2ccccc2CC1c1ccccc1 (racemic) [(±) -1-[3-(N,N-Dimethylamino)propyl]-3-methoxy-4-phenyl-1,3,4,5-tetrahydro-2H-1,3-benzodiazepine-2-one] | – | 37 | 25.7 | –
